The values that follow come from ChEMBL document CHEMBL4725294, “Centrally Active Multitarget Anti-Alzheimer Agents Derived from the Antioxidant Lead CR-6” (J Med Chem, 2020).

The nature of series [1]: Half life in rat liver microsomes at 5 uM by UPLC-MS/MS analysis. The format is ADME, Microsome.
The nature of series [2]: Stability in mouse plasma assessed as parent compound remaining at 10 uM measured after 60 mins by UPLC-MS/MS analysis. Format: ADME, cell-free. To be noted: read-out: Stabilty.
The test system of series [3] is Mus musculus. Kind of series: Antialzheimer activity in APP/PS1 double mutant-transgenic C57BL6/J mouse model assessed as increase in Adam10 gene expression at 10 mg/kg/day, ip for 4 weeks followed by compound washout and measured after 24 hrs by qPCR analysis. Format: functional, organism-based.
Series [4] relates to Mus musculus. Kind of series: Antialzheimer activity in APP/PS1 double mutant-transgenic C57BL6/J mouse model assessed as reduction in oxidized protein level at 10 mg/kg/day, ip for 4 weeks followed by compound washout and measured after 24 hrs by Western blot analysis. Format: functional, organism-based.
Series [5] can be described thus: Stability in human plasma assessed as parent compound remaining at 10 uM measured after 360 mins by UPLC-MS/MS analysis. Format: ADME, cell-free. To be noted: read-out: Stabilty.
The next series is described as follows: in vitro. The note with it: PAMPA.
In a further series the target is Beta-secretase 1 (Homo sapiens, UniProt P56817). Kind of series: Inhibition human BACE1 expressed in baculovirus expression system at 5 uM using Panvera peptide as substrate measured after 60 mins by fluorescence assay relative to control. The note with it: 1 h.
The next series has as its target Cholinesterase (Homo sapiens, UniProt P06276).
Series [6] can be described thus: Stability in rat plasma assessed as parent compound remaining at 10 uM measured immediately by UPLC-MS/MS analysis. Format: ADME, cell-free. The note with it: read-out: Stabilty.
In series [7] the test system is Mus musculus. The experiment in a line: Improvement in memory impairment in APP/PS1 double mutant-transgenic C57BL6/J mouse model assessed as […] at 10 mg/kg/day, ip for 4 weeks followed by compound washout by maze two-object recognition test. The format is functional, organism-based.
Series [8] in a line: Drug metabolism in human liver microsomes assessed as N-[8-[(6-chloro-1,2,3,4-tetrahydroacridin-9-yl)amino]octyl]-5-(2,5-dihydroxy-4-methoxy-phenyl)-3-hydroxy-3-methyl-pentanamide formation at 5 uM measured up to 60 mins by UPLC-MS/MS analysis. The format is ADME, Microsome. The note with it: 1 h.
Series [9] has as its system Mus musculus. Kind of series: Antialzheimer activity in APP/PS1 double mutant-transgenic C57BL6/J mouse model assessed as reduction in Bace1 expression at 10 mg/kg/day, ip for 4 weeks followed by compound washout and measured after 24 hrs by Western blot analysis. The format is functional, organism-based.
Series [10] concerns Mus musculus. Kind of series: Antialzheimer activity in APP/PS1 double mutant-transgenic C57BL6/J mouse model assessed as effect on iNOS gene expression at 10 mg/kg/day, ip for 4 weeks followed by compound washout and measured after 24 hrs by qPCR analysis. Format: functional, organism-based.
Series [11] is described as follows: Stability in mouse plasma assessed as parent compound remaining at 10 uM measured after 180 mins by UPLC-MS/MS analysis. To be noted: read-out: Stabilty. Format: ADME, cell-free.
The nature of series [12]: Drug metabolism in rat liver microsomes assessed as 6-chloro-1,2,3,4-tetrahydroacridin-9-amine formation at 5 uM measured up to 60 mins by UPLC-MS/MS analysis. Format: ADME, Microsome. The note with it: 1 h.
A short description of series [13]: Stability in human plasma assessed as parent compound remaining at 10 uM measured after 180 mins by UPLC-MS/MS analysis. Format: ADME, cell-free. To be noted: read-out: Stabilty.
Series [14] can be described thus: Acute toxicity in C57BL6/J mouse assessed as reduction in locomotor activity at 15 mg/kg, ip measured after 5 mins. Format: organism-based. The note with it: in vivo.
The nature of series [15]: Drug metabolism in rat liver microsomes assessed as N-[8-[(6-chloro-1,2,3,4-tetrahydroacridin-9-yl)amino]octyl]-2-(8-methoxy-2-methyl-6,9-dioxo-1-oxaspiro[4.5]dec-7-en-2-yl)acetamide formation at 5 uM measured up to 60 mins by UPLC-MS/MS analysis. Format: ADME, Microsome. To be noted: 1 h.
A short description of series [16]: Stability in human plasma assessed as parent compound remaining at 10 uM measured after 60 mins by UPLC-MS/MS analysis. The format is ADME, cell-free. To be noted: read-out: Stabilty.
A short description of series [17]: Intrinsic clearance in mouse liver microsomes assessed per mg protein at 5 uM by UPLC-MS/MS analysis. The format is ADME, Microsome. To be noted: read-out: CLH.

Activity calls are given as the source filed them. The calls are words filed in the database; no cut-off is given here.

Cholinesterase, sequence (P06276 whole entry): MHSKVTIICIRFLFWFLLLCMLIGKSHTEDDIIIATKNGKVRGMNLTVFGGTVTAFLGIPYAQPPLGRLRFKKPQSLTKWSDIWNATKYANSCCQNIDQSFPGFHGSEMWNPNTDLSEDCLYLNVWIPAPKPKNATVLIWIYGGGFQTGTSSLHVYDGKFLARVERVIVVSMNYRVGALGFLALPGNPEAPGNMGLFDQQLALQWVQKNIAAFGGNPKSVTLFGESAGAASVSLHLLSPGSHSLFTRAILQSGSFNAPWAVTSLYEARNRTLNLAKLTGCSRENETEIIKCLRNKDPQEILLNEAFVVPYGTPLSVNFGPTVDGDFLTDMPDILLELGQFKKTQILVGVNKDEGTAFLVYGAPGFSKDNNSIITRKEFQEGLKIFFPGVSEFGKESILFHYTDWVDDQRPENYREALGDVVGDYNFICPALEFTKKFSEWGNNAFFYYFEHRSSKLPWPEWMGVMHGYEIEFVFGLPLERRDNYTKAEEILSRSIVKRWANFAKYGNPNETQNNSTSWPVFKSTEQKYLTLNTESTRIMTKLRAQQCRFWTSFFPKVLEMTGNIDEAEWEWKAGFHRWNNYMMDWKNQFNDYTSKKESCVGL
Beta-secretase 1, sequence (P56817 whole entry): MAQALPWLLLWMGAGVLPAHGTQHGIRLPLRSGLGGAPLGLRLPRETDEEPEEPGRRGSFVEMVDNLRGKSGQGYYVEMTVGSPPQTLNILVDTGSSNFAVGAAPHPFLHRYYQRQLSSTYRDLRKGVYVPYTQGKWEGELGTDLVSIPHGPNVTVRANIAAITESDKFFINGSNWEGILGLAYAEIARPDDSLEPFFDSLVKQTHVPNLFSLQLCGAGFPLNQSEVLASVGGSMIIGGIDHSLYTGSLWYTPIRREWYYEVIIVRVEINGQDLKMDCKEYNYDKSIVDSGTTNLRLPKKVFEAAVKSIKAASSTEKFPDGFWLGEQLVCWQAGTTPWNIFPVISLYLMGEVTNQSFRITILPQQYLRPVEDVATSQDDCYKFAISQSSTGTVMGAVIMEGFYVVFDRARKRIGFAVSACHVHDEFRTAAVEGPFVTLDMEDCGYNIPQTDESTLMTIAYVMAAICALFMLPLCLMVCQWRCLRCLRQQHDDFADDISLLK
Description for Cholinesterase: Inhibition of recombinant human BChE using butyrylthiocholine iodide as substrate preincubated for 15 mins followed by substrate addition by Ellman's method
Description for in vitro: Permeability of compound in PBS/EtOH buffer (7:3) PAMPA-BBB assay

With `COc1cc2c(cc1O)CCC(C)(CC(=O)NCCCCCCCCNc1c3c(nc4cc(Cl)ccc14)CCCC3)O2` (stereo not given), the half-life at 5 µM in series [1] stood at 42.4 min. For the same compound, the remaining at 1 h, 10 µM in series [2] and in [16] was 100% each time. Further, the result in the series with Mus musculus [3], in the series on Mus musculus [4], in the series on Mus musculus [7], with Mus musculus [9] and with Mus musculus [10] was inactive. The remaining at 6 h, 10 µM in series [5] worked out at 100%. This compound also came in with a Papp in the series “in vitro” of 9.6 ×10⁻⁶ cm/s. Further, on Beta-secretase 1, the inhibition at 5 µM was found to be 19%. This compound also registered an IC50 at Cholinesterase of 170 nM. In addition, the remaining at 0 min, 10 µM in [6] was determined as 100%. The Drug metabolism result in [8], in series [12] and in series [15] was “Metabolite_Detected” throughout. Further, the remaining at 3 h, 10 µM in series [11] and in series [13] was 100% in each case. For the same compound, in [14], the Activity result was “Toxic”. Further, the microsomal CLint at 5 µM in series [17] was 13.7 µL/min/mg.
